Data as given in the NIST ThermoML archive (doi:10.1016/j.fluid.2014.11.024).

Settings: 101.33 kPa, Liquid; for viscosity: Falling or rolling sphere viscometry; for speed of sound: Sing-around technique in a fixed-path interferometer; for mass density: Vibrating tube method

CC(=O)[O-].C[NH+]1CCCC1=O [N-methyl-2-oxopyrrolidinium acetate]
Settings	mass density [kg/m3]	speed of sound [m/s]	viscosity [mPa·s]
293.15 K	1050.71	1491.5	2.933
298.15 K	1046.06	1473.5	2.622
303.15 K	1041.42	1455.1	2.364
308.15 K	1036.77	1436.9	2.144
313.15 K	1032.12	1418.7	1.959
318.15 K	1027.46	1400.6	1.799
323.15 K	1022.79	1382.6	1.66
328.15 K	1018.12	1364.7	1.54
333.15 K	1013.44	1346.9	1.435
338.15 K	1008.75	1329.2	1.344
343.15 K	1004.05	1311.5	1.264

CCCC(=O)[O-].C[NH+]1CCCC1=O [N-methyl-2-oxopyrrolidinium butanoate]
Settings	mass density [kg/m3]	speed of sound [m/s]	viscosity [mPa·s]
293.15 K	1010.56	1435.6	3.996
298.15 K	1006.11	1418	3.526
303.15 K	1001.65	1400.1	3.136
308.15 K	997.18	1382.2	2.809
313.15 K	992.71	1364.4	2.531
318.15 K	988.24	1346.7	2.295
323.15 K	983.74	1328.5	2.093
328.15 K	979.25	1311	1.918
333.15 K	974.76	1293.5	1.771
338.15 K	970.26	1276.3	1.639
343.15 K	965.75	1259.1	1.527

C[NH+]1CCCC1=O.O=C[O-] [N-methyl-2-oxopyrrolidinium formate]
Settings	mass density [kg/m3]	speed of sound [m/s]	viscosity [mPa·s]
293.15 K	1076.38	1496	2.451
298.15 K	1071.66	1478.3	2.217
303.15 K	1066.93	1460.4	2.02
308.15 K	1062.2	1442.5	1.85
313.15 K	1057.45	1424.8	1.705
318.15 K	1052.71	1407.2	1.58
323.15 K	1047.96	1389.7	1.472
328.15 K	1043.2	1372.2	1.377
333.15 K	1038.43	1354.8	1.295
338.15 K	1033.66	1337.6	1.223
343.15 K	1028.88	1320.5	1.159

CCCCCC(=O)[O-].C[NH+]1CCCC1=O [N-methyl-2-oxopyrrolidinium hexanoate]
Settings	mass density [kg/m3]	speed of sound [m/s]	viscosity [mPa·s]
293.15 K	983.01	1431.4	5.211
298.15 K	978.81	1414.2	4.549
303.15 K	974.6	1396.7	3.998
308.15 K	970.39	1379.3	3.543
313.15 K	966.18	1362	3.163
318.15 K	961.96	1344.8	2.843
323.15 K	957.74	1327.6	2.57
328.15 K	953.51	1310.6	2.336
333.15 K	949.28	1293.7	2.135
338.15 K	945.04	1276.8	1.96
343.15 K	940.79	1260.2	1.808

CCCCC(=O)[O-].C[NH+]1CCCC1=O [N-methyl-2-oxopyrrolidinium pentanoate]
Settings	mass density [kg/m3]	speed of sound [m/s]	viscosity [mPa·s]
293.15 K	994.31	1427.7	4.448
298.15 K	990.01	1410.5	3.91
303.15 K	985.7	1393	3.465
308.15 K	981.38	1375.4	3.093
313.15 K	977.06	1358	2.779
318.15 K	972.73	1340.7	2.513
323.15 K	968.39	1323	2.284
328.15 K	964.05	1305.7	2.087
333.15 K	959.71	1288.7	1.917
338.15 K	955.36	1271.8	1.769
343.15 K	951.01	1255	1.64

CCC(=O)[O-].C[NH+]1CCCC1=O [N-methyl-2-oxopyrrolidinium propionate]
Settings	mass density [kg/m3]	speed of sound [m/s]	viscosity [mPa·s]
293.15 K	1032.46	1460.3	3.136
298.15 K	1027.86	1442.6	2.801
303.15 K	1023.32	1424.5	2.518
308.15 K	1018.74	1406.4	2.28
313.15 K	1014.16	1388.4	2.075
318.15 K	1009.56	1370.6	1.9
323.15 K	1004.97	1352.8	1.75
328.15 K	1000.36	1335.1	1.619
333.15 K	995.75	1317.5	1.506
338.15 K	991.12	1300	1.407
343.15 K	986.49	1282.6	1.32
